Assay results from patent publication US6683200B2, “N-substituted-N′-substituted urea derivatives and pharmaceutical compositions containing the derivatives” (Santen Pharmaceutical Co., Ltd., priority 1999, dated 2004).
Structures can show the parent of a compound that is named as a salt.

Key:
[1] = system: TNF-α production by human monocyte strain THP-1 cells stimulated with LPS; experiment: Inhibition of LPS-induced TNF-α production in THP-1 cells (ELISA); format: cell-based; settings: compound 10^−5M, THP-1 cells 10^6 cells/ml, LPS 2 μg/ml, 37° C., two hours; for inhibition at 10 µM: Homo sapiens, 2 h, read-out: Rate of Inhibition (%) of TNF-α production
Experimental: Each candidate compound was inspected for the effect of inhibiting TNF-α production induced by the stimulation with lipopolysaccharide (LPS), by an in vitro test according to the method proposed by McGeehan et al. (Nature, 1994, 370:558-561).
The test (assay) was carried out by determining the amount of TNF-α produced by the human monocyte strain THP-1 cells induced by the stimulation with LPS.
The culture medium used in this test was RPMI 1640 culture medium supplemented wiTNFetal calf serum (10%), L-glutamine (2 mM), 2-mercaptoethanol (50 μM), penicillin (50 units/ml) and streptomycin (50 μg/ml).
Regarding the cells, the human monocyte strain THP-1 cells cultivated in the foregoing culture medium were centrifuged at 100 xg for 5 minutes to remove the supernatant and then again suspended in a fresh culture medium prior to the practical use. The LPS used herein was derived from S. Typhimurium and this was dissolved in purified water and then diluted with the culture medium prior to use. Each compound to be tested (candidate compound) was dissolved in dimethyl sulfoxide (DMSO) and diluted with the culture medium prior to the practical use.
The cells (10^6 cells/ml) prepared according to the foregoing method were admixed with the LPS (2 μg/ml) and a compound to be tested (10^−5M), the cells were incubated at 37° C. for two hours and then centrifuged at 1000 xg for 5 minutes. The resulting supernatant of the culture medium was inspected for the level of TNF-α using the human TNF-α-specific ELISA kit. In this connection, it was confirmed that the supernatant obtained by cultivating the cells in the culture medium free of any LPS (control) never included any TNF-α.
The rate of the TNF-α production inhibitory effect observed for each candidate compound was determined according to the following equation:
Rate of Inhibition (%)=100×(A−B)/A
Wherein A is the level of TNF-α detected in the supernatant obtained from the culture medium free of any candidate compound and B is the level of TNF-α detected in the supernatant obtained from the culture medium containing a candidate compound.

Compound: CC(C)CCN(CCN)C(=O)N[C@H](CSSC[C@H](Cc1ccc(-c2ccccc2)cc1)NC(=O)N(CCN)CCC(C)C)Cc1ccc(-c2ccccc2)cc1.Cl.Cl [Compound 8-2, Bis[(2S)-2-[3-(2-aminoethyl)-3-isopentylureido]-3-(4-biphenylyl)propane]-disulfide di-hydrochloride]
- Rate of Inhibition (%) of TNF-α production [1]: 66%

Compound: CC(C)CCN(CCN)C(=O)N[C@H](CSSC[C@H](Cc1ccccc1)NC(=O)N(CCN)CCC(C)C)Cc1ccccc1 (as salt: hydrochloride) [Compound 8-1, Bis[(2S)-2-[3-(2-aminoethyl)-3-isopentylureido]-3-phenylpropane] Disulfide di-hydrochloride]
- melting point: 100 °C (dec.)

Compound: CC(=O)SC[C@H](Cc1ccc(-c2ccccc2)cc1)NC(=O)N(CCC(C)C)CCN(C)C [Compound 6-11, 1-[(1S)-2-(Acetylthio)-1-[(4-biphenylyl)methyl]ethyl]-3-[2-(dimethylamino)-ethyl]-3-isopentyl urea]
- inhibition at 10 µM [1]: 76%

Compound: CC(=O)SC[C@H](Cc1ccccc1)NC(=O)N(CCC(C)C)CCN(C)C [Compound 6-8, 1-[(1S)-2-(Acetylthio)-1-benzylethyl]-3-[2-(dimethylamino)ethyl]-3-isopentyl urea]
- inhibition at 10 µM [1]: 60%

Compound: CC(=O)SCCN(CCc1ccccc1)C(=O)N[C@@H](Cc1ccccc1)CN(C)C [Compound 6-3, 1-[2-(Acetylthio)ethyl]-3-[(1S)-1-benzyl-2-(dimethylamino)ethyl]-1-phenethyl urea]
- inhibition at 10 µM [1]: 83%

Compound: CC(C)CCN(CCN)C(=O)N[C@H](CSSC[C@H](Cc1ccccc1)NC(=O)N(CCN)CCC(C)C)Cc1ccccc1 [Compound 8-1, Bis[(2S)-2-[3-(2-aminoethyl)-3-isopentylureido]-3-phenylpropane] Disulfide di-hydrochloride]
- inhibition at 10 µM [1]: 81%
